Literature values as cited in patent US5618928A, “Triazenyl-substituted phenyl pyrimidines and their use in therapy” (British Technology Group Limited, priority 1992, dated 1997).

Columns and labels:
[1] = in combination with sulphamethoxazole, AIDS patients; cited from earlier work
[2] = test system: dihydrofolate reductase (DHFR); conditions: in words, background; cited from earlier work

Question: With `COc1cc(Cc2cnc(N)nc2N)cc(OC)c1OC` [trimethoprim] as the compound, how does the adverse reactions [1] read?
Answer: high percentage of adverse reactions in AIDS patients

Question: For `COc1cc(NCc2ccc3nc(N)nc(N)c3c2C)cc(OC)c1OC` [trimetrexate], which potency [2] is on record?
Answer: high potency

Question: What about the selectivity [2] of the same compound?
Answer: poor selectivity
